Test results: paper PMC8835475, “Salviolone from Salvia miltiorrhiza Roots Impairs Cell Cycle Progression, Colony Formation, and Metalloproteinase-2 Activity in A375 Melanoma Cells: Involvement of P21(Cip1/Waf1) Expression and STAT3 Phosphorylation” (International Journal of Molecular Sciences, 2022)

What was measured:
Format in all cases: cell-based, human
MeWo melanoma cell line = assay: SRB cell viability assay in MeWo cells; details: for inhibition of melanoma cell viability: 20 µM; for inhibition of melanoma cell viability / EC50: 72 h; for EC50: Homo sapiens, read-out: EC50 useful in diminishing cell viability; for EC50 / viability reduction in melanoma cells: SRB; for viability reduction in melanoma cells: 40–60 µM
Method: (§1) In preliminary experiments, the evaluation of cell viability at different time after compound administration was carried out with sulforhodamine B (SRB) assay. Indeed, after 24-, 48-, and 72-h treatment, an evident time dependence in the inhibition of cell growth was registered (data not shown). Thus, to evaluate A375 and MeWo cell viability, we decided to perform further SRB experiments with each compound only after 72 h.
(§2) Human MeWo (HTB-65) and A375 (CRL-1619) melanoma cell lines as well as the normal human epidermal melanocyte (NHEM) (PCS-200-013) cell line (ATCC, Manassas, VA, USA) were cultured at 37 °C under 5% CO2 in a humidified atmosphere. Roswell Park Memorial Institute 1640 medium (RPMI, Gibco, Ref.21875, Thermo Scientific, Waltham, MA, USA) was used to culture MeWo cells, while Dulbecco’s Modified Eagle Medium (DMEM, Gibco, Ref. 61965, Thermo Scientific, Waltham, MA, USA) was used for A375 and NHEM cell lines. The culture media were supplemented with 10% fetal bovine serum (FBS, Gibco, Thermo Scientific, Waltham, MA, USA) plus 1% Antibiotic Antimycotic Solution (Gibco, Thermo Scientific). The MEK1 inhibitor U0126 (CAY-70970) and the PI3K inhibitor LY294002 (CAY-70920) were provided by Cayman Chemical, Ann Arbor, MI, USA.
(§3) Melanoma MeWo and A375 cells or NHEM were seeded in 96-well plates (5.0 × 10^3 cells/well for MeWo cells and 2.9 × 10^3 cells/well for A375 or NHEM). After 24-h culture, the cells were treated with different concentrations of compounds 1–7. After 72-h treatment, the cells were fixed by adding 25 µL/well of 50% (w/v) TCA directly into the culture medium. The plates were incubated at 4 °C for 1 h, washed four times with ddH2O, and dried at RT. Staining was performed by adding 50 µL/well of 0.04% (w/v) sulforhodamine B (SRB) sodium salt solution (Sigma-Aldrich, Milan, Italy). After 1-h incubation at RT, the plates were rinsed with 1% HAc and air-dried. SRB was solubilized in a 10 mM Tris-base solution pH 10.5 and Abs492 measured in the plate reader TECAN NanoQuant Infinite M200 Pro (Tecan Group Ltd., Männedorf, Switzerland). Six replicates for each condition/data point were performed.

pSer15-P53 (pP53) = assay: Immunoblot of pSer15-P53 in A375 cells; details: A375, 20 µM, vs untreated
Method: (§4) A375 cells were seeded in 6 cm Petri dishes (190 300 cell/dish) and treated with different compounds at 10 or 20 μM. After 48- or 72-h treatment, the cells were scraped using warm 1× sample buffer (2% SDS, 10% glycerol, 50 mM Tris-HCl, 1.75% β-mercaptoethanol, and bromophenol blue) and boiled at 99 °C for 10 min. Total protein extracts were kept at −80 °C until use.
(§5) Protein extracts were analyzed with a 7.5 or 10% polyacrylamide SDS-PAGE and transferred to a polyvinylidene difluoride membrane (PVDF, Thermo Fisher Scientific, Waltham, MA, USA). The membranes were blocked at RT for 1 h with TBST buffer (10 mM Tris-HCl pH 7.5, 100 mM NaCl, 0.1% Tween20) containing 4% Milk (Formulat). […] Immuno-detection was carried out with an ECL kit (GE-Healthcare, Little Chalfont, UK), and the chemiluminescence signals were detected with ChemiDoc (Bio-Rad, Hercules, CA, USA).

[1] = tested on: Tyr705-STAT3 phosphorylation; assay: Immunoblot of p-Tyr705-STAT3 in A375 cells; details: A375, 20 µM; for STAT3 activity (tyrosine and serine phosphorylation): 48 h; for Tyr705-STAT3 phosphorylation: 72 h, vs untreated cells
Method: as §4
(§6) Protein extracts were analyzed with a 7.5 or 10% polyacrylamide SDS-PAGE and transferred to a polyvinylidene difluoride membrane (PVDF, Thermo Fisher Scientific, Waltham, MA, USA). The membranes were blocked at RT for 1 h with TBST buffer (10 mM Tris-HCl pH 7.5, 100 mM NaCl, 0.1% Tween20) containing 4% Milk (Formulat). Then, they were incubated on a shaker, overnight (ON) at 4 °C, with 5% BSA solution containing primary antibodies against p-Tyr705-STAT3 (#9145, 1:1000), pRb (#8516, 1:2000), pERK (#4370, 1:1000), pAkt (#4060, 1:2000), pSer15-P53 (#9286, 1:2000) (Cell Signaling Technology, Danvers, […], USA), Akt (GTX121937, 1:3000), ERK (GTX134452, 1:6000), Cyclin A2 (GTX-103042, 1:3000), p-Thr160Cdk2 (GTX-133862, 1:3000), p21 (GTX-629543, 1:3000) (Genetex, Alton Pkwj Irvine, CA, USA), p53 (Sc-263, 1:1000), STAT3 (Sc-482, 1:1000), and p-Ser727-STAT3 (Sc-136193, 1:1000) (Santa Cruz Biotechnology, Dallas, TX, USA). The membranes were washed three times with TBST buffer for 30 min and then incubated for 1 h with a horseradish-peroxidase-conjugated secondary antibody (anti-rabbit 1:6000, Genetex), (anti-mouse, 1:4000, Cell Signaling Technology, Danvers, […], USA). They were washed another three times for 30 min with TBST buffer. All protein extracts were normalized with a β-actin protein antibody (GTX-124214, 1:10,000; Genetex, Alton Pkwj Irvine, CA, USA). Immuno-detection was carried out with an ECL kit (GE-Healthcare, Little Chalfont, UK), and the chemiluminescence signals were detected with ChemiDoc (Bio-Rad, Hercules, CA, USA).

A375 melanoma cell line = assay: SRB cell viability assay in A375 cells; details: for inhibition of melanoma cell viability: A375, 20 µM; for inhibition of melanoma cell viability / EC50: 72 h; for viability reduction in melanoma cells / EC50: A375, SRB; for viability reduction in melanoma cells: 40–60 µM; for EC50: Homo sapiens, A-375, read-out: half maximal effective concentration (EC50) able to reduce cell viability
Method: as §1, §2, §3

pAkt = assay: Immunoblot of pAkt in A375 cells; details: A375, 20 µM, 72 h; declined in control
Method: as §4, §6

ERK1/2 = assay: Immunoblot of total ERK1/2 in A375 cells; details: A375, 20 µM, 72 h
Method: as §4, §5

Row | SMILES | inhibition of melanoma cell viability (MeWo melanoma cell line) | EC50 (MeWo melanoma cell line) | viability reduction in melanoma cells (MeWo melanoma cell line) | pSer15-P53 (pP53) expression / P53 phosphorylation level (pSer15-P53 (pP53)) | STAT3 activity (tyrosine and serine phosphorylation) [1] | Tyr705-STAT3 phosphorylation [1] | inhibition of melanoma cell viability (A375 melanoma cell line) | viability reduction in melanoma cells (A375 melanoma cell line) | EC50 (A375 melanoma cell line) | pAkt expression level (pAkt) | total protein amount of ERK1/2 (ERK1/2)
1 | C[C@H]1COC2=C1C(=O)C(=O)c1c2ccc2c1CCCC2(C)C [Compound 4, cryptotanshinone] | about 50% | 17 µM | 70–80% | no significant increase | did not significantly change | significant reduction | about 50% | 70–80% | ~14 µM | remained high | 
2 | Cc1cc2ccc3c(c2cc(O)c1=O)CCCC3(C)C [Compound 7, salviolone] | about 50% | 22 µM | 70–80% | higher | did not significantly change | significant reduction | about 50% | 70–80% | ~17 µM | remained high | increased
